pIC50: −log10 of the molar value. Values joined by “and” are separate entries in the source; they are usually repeats but may differ in a detail not shown here. Equal entries are not always repeated.
Key:
Trypanosoma cruzi [1] = assay: DNDI: Chagas in vivo at 20 mg/kg, 20 days 1x; format: functional, Tulahuen Swiss po
Trypanosoma cruzi [2] = assay: DNDI: Chagas in vivo at 20 mg/kg, 20 days 2x; format: functional, Tulahuen Swiss po
in vitro [3] = conditions: human, microsomes
in vitro [4] = conditions: rat, microsomes
[5] = DNDI: Protein binding in mouse plasma
in vitro [6] = conditions: mouse, microsomes
in vitro [7] = conditions: rat, microsomes; remark: listed apart in the source
Cytochrome P450 3A4 = Cytochrome P450 3A4 (Homo sapiens, UniProt P08684); assay: DNDI: Human CYP3A4 inhibition determined using 6b-hydroxylation of testosterone
in vitro [8] = conditions: rat, microsomes; remark: listed apart in the source
Trypanosoma cruzi [9] = assay: (§1) DNDI: Chagas in Vitro; format: functional, organism-based, Tulahuen C4 (LacZ)
Trypanosoma cruzi [10] = assay: DNDI: Chagas in vivo at 50 mg/kg, 20 days 1x; format: functional, Tulahuen Swiss po
in vitro [11] = conditions: mouse, microsomes; remark: listed apart in the source
in vitro [12] = conditions: human, microsomes, t (1 / 2)
in vitro [13] = conditions: human, microsomes, EH
Trypanosoma cruzi [14] = assay: as §1; format: functional, Tulahuen C4 (LacZ)
[15] = DNDI: Cytotoxicity in vitro, against rat skeletal myoblast (L-6) cells; conditions: L-6 cells (skeletal myoblasts), IC50
in vitro [16] = conditions: rat, hepatocytes
[17] = DNDI: Protein binding in rat plasma; format: ADME, cell-free; conditions: read-out: % bound (converted)
in vitro [18] = conditions: mouse, microsomes; remark: listed apart in the source
in vitro [19] = conditions: rat, hepatocytes; remark: listed apart in the source
[20] = DNDI: Permeability in CACO-2 cells at pH 7.4 (A to B); format: ADME, cell-based; conditions: human, Caco-2, pH 7.4
[21] = DNDI: Metabolism; format: ADME, Microsome; conditions: rat, microsomes
Cytochrome P450 2C9 = Cytochrome P450 2C9 (Homo sapiens, UniProt P11712)
[22] = DNDI: Lipophilicity (gLogD) at pH 3; conditions: buffer, pH 3, logD
[23] = DNDI: Lipophilicity (gLogD) at pH 7.4; conditions: buffer, pH 7.4, logD
Cytochrome P450 1A2 = molecular target: T1, Cytochrome P450 1A2 (Homo sapiens, UniProt P05177)
T1 sequence (P05177 whole entry): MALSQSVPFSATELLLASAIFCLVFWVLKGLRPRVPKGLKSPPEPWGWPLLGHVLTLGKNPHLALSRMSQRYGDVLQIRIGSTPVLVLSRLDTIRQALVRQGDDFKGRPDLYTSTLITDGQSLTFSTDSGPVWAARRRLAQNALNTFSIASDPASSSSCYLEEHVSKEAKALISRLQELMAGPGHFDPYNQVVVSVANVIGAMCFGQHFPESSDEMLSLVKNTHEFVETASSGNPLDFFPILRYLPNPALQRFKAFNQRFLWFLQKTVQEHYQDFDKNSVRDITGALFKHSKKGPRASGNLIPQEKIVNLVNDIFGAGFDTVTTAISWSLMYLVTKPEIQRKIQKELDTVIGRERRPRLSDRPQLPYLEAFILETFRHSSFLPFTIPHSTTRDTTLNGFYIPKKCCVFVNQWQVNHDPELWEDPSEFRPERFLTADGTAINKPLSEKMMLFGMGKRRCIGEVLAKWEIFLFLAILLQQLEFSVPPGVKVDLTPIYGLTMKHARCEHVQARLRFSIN

[24] = tested on: Trypanosoma brucei rhodesiense; assay: DNDI: HAT in Vitro; format: functional, organism-based, ATCC 30027; conditions: Trypanosoma brucei, ATCC 30027
Cytochrome P450 2D6 = Cytochrome P450 2D6 (Homo sapiens, UniProt P10635)
[25] = DNDI: Solubility in 0.01M HCl at pH 2 determined by nephelometry; conditions: 0.01M HCl, pH 2, Kinetic
Cytochrome P450 2C19 = Cytochrome P450 2C19 (Homo sapiens, UniProt P33261)
[26] = Trypanosoma cruzi, Tulahuen C4 (LacZ)

Sequence of Cytochrome P450 2D6 (P10635 whole entry): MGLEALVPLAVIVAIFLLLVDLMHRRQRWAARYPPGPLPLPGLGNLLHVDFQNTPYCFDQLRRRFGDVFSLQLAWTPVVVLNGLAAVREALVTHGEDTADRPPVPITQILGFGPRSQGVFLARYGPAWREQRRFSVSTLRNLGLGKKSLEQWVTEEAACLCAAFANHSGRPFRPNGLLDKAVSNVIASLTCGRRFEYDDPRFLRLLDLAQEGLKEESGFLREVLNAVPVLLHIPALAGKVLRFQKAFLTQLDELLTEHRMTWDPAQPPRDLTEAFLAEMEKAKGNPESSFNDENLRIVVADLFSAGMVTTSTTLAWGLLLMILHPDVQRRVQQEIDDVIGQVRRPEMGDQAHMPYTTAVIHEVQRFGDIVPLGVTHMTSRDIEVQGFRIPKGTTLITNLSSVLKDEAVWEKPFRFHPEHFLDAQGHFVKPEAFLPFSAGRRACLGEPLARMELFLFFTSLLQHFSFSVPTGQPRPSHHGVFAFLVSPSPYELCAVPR
Sequence of Cytochrome P450 2C9 (P11712 whole entry): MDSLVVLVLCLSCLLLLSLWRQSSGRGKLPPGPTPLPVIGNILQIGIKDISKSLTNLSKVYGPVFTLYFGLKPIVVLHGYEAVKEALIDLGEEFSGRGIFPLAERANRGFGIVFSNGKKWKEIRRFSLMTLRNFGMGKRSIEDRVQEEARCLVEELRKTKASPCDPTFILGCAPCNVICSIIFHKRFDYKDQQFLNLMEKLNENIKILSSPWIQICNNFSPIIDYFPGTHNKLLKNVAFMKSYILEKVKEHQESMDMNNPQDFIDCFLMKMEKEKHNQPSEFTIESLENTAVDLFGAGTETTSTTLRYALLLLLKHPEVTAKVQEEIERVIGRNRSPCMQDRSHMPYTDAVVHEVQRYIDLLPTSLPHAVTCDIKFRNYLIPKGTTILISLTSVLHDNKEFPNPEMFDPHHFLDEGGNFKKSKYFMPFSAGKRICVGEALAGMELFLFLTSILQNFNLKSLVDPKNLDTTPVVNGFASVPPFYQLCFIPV
Sequence of Cytochrome P450 2C19 (P33261 whole entry): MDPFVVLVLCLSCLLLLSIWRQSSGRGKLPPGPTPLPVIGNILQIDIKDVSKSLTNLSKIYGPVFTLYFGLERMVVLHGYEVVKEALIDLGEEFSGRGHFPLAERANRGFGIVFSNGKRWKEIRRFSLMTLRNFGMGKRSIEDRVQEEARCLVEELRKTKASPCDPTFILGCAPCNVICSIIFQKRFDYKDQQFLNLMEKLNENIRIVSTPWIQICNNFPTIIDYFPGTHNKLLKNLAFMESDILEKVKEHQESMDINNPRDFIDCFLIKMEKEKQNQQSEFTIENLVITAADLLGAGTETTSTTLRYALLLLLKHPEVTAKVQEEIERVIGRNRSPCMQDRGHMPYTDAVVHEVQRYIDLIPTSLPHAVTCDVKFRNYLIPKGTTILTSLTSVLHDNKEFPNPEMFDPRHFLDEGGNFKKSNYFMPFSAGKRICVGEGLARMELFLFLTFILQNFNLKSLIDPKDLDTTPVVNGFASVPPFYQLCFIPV
Sequence of Cytochrome P450 3A4 (P08684 whole entry): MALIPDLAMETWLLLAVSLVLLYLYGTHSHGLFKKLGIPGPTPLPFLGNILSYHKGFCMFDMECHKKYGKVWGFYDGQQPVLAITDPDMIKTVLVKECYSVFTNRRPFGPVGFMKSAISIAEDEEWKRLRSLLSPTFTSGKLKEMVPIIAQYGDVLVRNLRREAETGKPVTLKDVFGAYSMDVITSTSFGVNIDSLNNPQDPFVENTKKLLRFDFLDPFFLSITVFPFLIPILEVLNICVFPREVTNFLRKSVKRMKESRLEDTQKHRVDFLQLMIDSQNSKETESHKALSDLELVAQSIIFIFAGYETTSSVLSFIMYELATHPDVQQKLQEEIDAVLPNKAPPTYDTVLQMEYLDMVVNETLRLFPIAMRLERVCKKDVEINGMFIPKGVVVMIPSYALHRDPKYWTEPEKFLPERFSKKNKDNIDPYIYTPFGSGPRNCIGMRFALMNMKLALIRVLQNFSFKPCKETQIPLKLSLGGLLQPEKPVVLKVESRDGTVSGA

Structure (SMILES)	PCR cure rate (Trypanosoma cruzi [2]) [%]	Parasitemia clearance after immunosuppression (Trypanosoma cruzi [2]) [%]	Parasitemia clearance after treatment (Trypanosoma cruzi [2]) [%]	microsomal CLint (in vitro [3]) [µL/min/mg]	half-life (in vitro [4]) [h]	fraction unbound [5]	half-life (in vitro [6]) [h]	microsomal CLint (in vitro [7]) [µL/min/mg]	pIC50 (Trypanosoma cruzi [9])	pIC50 (Trypanosoma cruzi [9]; [26])	microsomal CLint (in vitro [11]) [µL/min/mg]	half-life (in vitro [12]) [h]	IC90 (Trypanosoma cruzi [14])	pIC50 [15]	CLhep predicted (in vitro [16]) [mL/min/kg]	fraction unbound [17]	other results
CO/N=C(\C)c1ccc(-n2ccnc2)c(NC(=O)c2cnn(-c3ccccn3)c2)c1	0	0	80	16	1.07	0.022	0.35	27	8.22	8.17	83	1.8	14 nM	< 4.00	34.3	0.008	PCR cure rate (Trypanosoma cruzi [1]): 0%; Parasitemia clearance after immunosuppression (Trypanosoma cruzi [1]): 0%; Parasitemia clearance after treatment (Trypanosoma cruzi [1]): 0%; pIC50 (Cytochrome P450 3A4): 5.85; hepatic extraction ratio (in vitro [8]): 0.47; PCR cure rate (Trypanosoma cruzi [10]): 0%; Parasitemia clearance after immunosuppression (Trypanosoma cruzi [10]): 0%; Parasitemia clearance after treatment (Trypanosoma cruzi [10]): 20%; hepatic extraction ratio (in vitro [13]): 0.38; IC90 (Trypanosoma cruzi [14]; [26]): 16 nM; hepatic extraction ratio (in vitro [18]): 0.78; hepatic extraction ratio (in vitro [19]): 0.51
N#Cc1ccc(-n2ccnc2)c(NC(=O)c2cnc(-c3ccccc3)s2)c1	0	0	100	11	1.22	0.064	0.933	24	7.94 and 8.17 and 8.15	8.22	31	2.53	20.5 nM and 47 nM and > 100 nM	< 4.00	17.2	0.043	Papp A→B [20]: 82 ×10⁻⁶ cm/s; CLblood [21]: 25 mL/min/kg; pIC50 (Cytochrome P450 2C9): < 4.70; chromatographic logD [22]: 2.1; chromatographic logD [23]: 2.8; pIC50 (Cytochrome P450 1A2): < 4.70; pIC50 [24]: < 5.00; pIC50 (Cytochrome P450 2D6): 5.57; solubility kinetic [25]: > 100 µg/mL; pIC50 (Cytochrome P450 2C19): 4.80
